The target of one data set is T1, Cytochrome P450 2C8 (Homo sapiens, UniProt P10632).
T1 sequence (P10632 whole entry): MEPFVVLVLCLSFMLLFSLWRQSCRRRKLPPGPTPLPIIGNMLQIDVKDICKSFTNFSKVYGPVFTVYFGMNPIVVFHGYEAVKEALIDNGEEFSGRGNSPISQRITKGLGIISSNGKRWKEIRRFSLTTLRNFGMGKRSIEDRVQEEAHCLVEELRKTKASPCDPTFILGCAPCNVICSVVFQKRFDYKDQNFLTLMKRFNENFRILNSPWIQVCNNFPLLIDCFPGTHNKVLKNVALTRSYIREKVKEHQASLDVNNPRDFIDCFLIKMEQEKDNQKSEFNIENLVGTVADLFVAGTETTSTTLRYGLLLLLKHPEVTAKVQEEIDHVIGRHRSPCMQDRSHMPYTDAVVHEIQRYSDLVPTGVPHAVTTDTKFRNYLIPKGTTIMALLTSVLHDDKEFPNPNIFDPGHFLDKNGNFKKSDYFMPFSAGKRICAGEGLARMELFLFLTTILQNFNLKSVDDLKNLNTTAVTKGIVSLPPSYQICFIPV
Kind of data set: Inhibition of CYP2C8 (unknown origin).

Data set [1] can be described thus: Microsomal stability in human liver microsomes assessed as half life. In kind it is ADME, Microsome.
For data set [2], the target named is T2, Relaxin receptor 1 (Mus musculus, UniProt Q6R6I7).
T2 sequence (Q6R6I7 whole entry): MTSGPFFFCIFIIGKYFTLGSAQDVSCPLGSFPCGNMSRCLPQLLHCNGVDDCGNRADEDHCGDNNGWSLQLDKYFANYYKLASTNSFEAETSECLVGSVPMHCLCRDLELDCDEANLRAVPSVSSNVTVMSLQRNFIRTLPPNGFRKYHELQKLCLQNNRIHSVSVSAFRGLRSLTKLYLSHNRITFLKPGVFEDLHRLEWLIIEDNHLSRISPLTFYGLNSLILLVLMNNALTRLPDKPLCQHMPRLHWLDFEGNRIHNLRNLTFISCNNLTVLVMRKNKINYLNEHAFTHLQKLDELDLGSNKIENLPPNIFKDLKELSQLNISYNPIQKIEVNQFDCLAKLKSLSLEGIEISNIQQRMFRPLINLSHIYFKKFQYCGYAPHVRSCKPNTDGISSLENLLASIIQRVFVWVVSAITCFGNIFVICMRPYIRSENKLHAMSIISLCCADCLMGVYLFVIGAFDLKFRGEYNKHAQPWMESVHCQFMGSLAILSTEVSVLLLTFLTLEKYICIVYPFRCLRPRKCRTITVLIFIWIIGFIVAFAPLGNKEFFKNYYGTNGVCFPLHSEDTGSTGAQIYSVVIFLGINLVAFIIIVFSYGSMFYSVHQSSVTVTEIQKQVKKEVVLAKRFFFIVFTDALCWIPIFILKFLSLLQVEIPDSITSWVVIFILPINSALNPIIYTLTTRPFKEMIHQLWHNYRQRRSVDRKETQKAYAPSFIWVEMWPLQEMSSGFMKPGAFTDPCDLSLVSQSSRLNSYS
Description: Agonist activity at mouse RXFP1 stably expressed in HEK293 cells assessed as intracellular cAMP accumulation incubated for 30 mins by HTRF assay. In kind it is functional, cell-based.

For data set [3], the target named is T3, Relaxin receptor 1 (Homo sapiens, UniProt Q9HBX9).
T3 sequence (Q9HBX9 whole entry): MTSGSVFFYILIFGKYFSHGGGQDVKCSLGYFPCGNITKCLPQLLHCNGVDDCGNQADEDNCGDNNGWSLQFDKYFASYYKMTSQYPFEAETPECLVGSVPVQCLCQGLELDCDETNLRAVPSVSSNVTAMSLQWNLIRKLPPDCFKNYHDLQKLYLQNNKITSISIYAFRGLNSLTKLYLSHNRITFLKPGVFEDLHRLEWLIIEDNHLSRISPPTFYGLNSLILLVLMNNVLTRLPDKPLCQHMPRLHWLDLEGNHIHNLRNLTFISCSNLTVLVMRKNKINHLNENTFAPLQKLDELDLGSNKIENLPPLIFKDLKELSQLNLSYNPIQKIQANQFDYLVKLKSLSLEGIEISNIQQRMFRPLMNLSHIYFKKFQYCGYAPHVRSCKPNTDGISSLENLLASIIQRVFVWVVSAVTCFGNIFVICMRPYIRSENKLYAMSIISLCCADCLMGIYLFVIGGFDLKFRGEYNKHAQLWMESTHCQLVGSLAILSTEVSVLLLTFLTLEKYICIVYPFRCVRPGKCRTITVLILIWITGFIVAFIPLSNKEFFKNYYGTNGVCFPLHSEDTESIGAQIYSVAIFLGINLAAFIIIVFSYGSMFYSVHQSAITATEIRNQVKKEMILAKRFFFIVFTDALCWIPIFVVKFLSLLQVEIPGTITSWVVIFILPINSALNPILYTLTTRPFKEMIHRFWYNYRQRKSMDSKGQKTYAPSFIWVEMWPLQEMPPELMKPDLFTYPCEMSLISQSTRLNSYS
Kind of data set: Agonist activity at human RXFP1 stably expressed in HEK293 cells assessed as intracellular cAMP accumulation incubated for 30 mins by HTRF assay.

Each structure is given as a SMILES string. A value given as a limit tells only on which side of the number the result lay.

On to `CNC(=O)OC(C(=O)O)c1ccc(F)c(-c2ccc(OC)c(C(=O)N[C@H]3[C@@H](C(=O)Nc4ccc(F)c(C(F)(F)F)c4)[C@H]4CC[C@@H]3/C4=C\C3CC3)c2)c1` (stereo in doubt; 39), for which the concentration for half-maximal inhibition (IC50) on Cytochrome P450 2C8 was determined as 2600 nM. Moreover, in data set [1], the half-life was more than 2 h. In addition, the figures for the EC50 on Relaxin receptor 1 [2] and on Relaxin receptor 1 [3] were 30 nM and 2 nM, respectively.

The record behind these values is ChEMBL document CHEMBL6182920, “The Discovery of C7-Substituted Norbornyl Bisamides as RXFP1 Small Molecule Agonists” (J Med Chem, 2025).
